{
  "source": "paper PMC6311682",
  "about": "“Design, Synthesis, and Biological Evaluation of 2-Nitroimidazopyrazin-one/-es with Antitubercular and Antiparasitic Activity” (Journal of Medicinal Chemistry, 2018)",
  "data": [
    {"test_system": "L. donovani MHOM/IN/80/DD8 (ATCC50212)", "experiment": "L. donovani DD8 intracellular (THP-1) amastigote assay", "assay_type": "cell-based", "settings": "Leishmania donovani, read-out: antiparasitic IC50 L. donovani", "units": {"IC50": "µM"}, "values": [
      {"smiles": "Cc1ccc(Cn2c(C)cn3cc([N+](=O)[O-])nc3c2=O)cc1", "note": "[25h, 6-Methyl-7-(4-methylbenzyl)-2-nitroimidazo[1,2-a]pyrazin-8(7H)-one]", "IC50": "> 40"},
      {"smiles": "Cc1cn2cc([N+](=O)[O-])nc2c(=O)n1Cc1cccc(OC(F)(F)F)c1", "note": "[25j, 6-Methyl-2-nitro-7-(3-(trifluoromethoxy)benzyl)imidazo[1,2-a]pyrazin-8(7H)-one]", "IC50": "> 20"},
      {"smiles": "Cc1cn2cc([N+](=O)[O-])nc2c(=O)n1Cc1ccccc1OC(F)(F)F", "note": "[25l, 6-Methyl-2-nitro-7-(2-(trifluoromethoxy)benzyl)imidazo[1,2-a]pyrazin-8(7H)-one]", "IC50": "> 40"}
    ]},
    {"test_system": "L. donovani MHOM/IN/80/DD8 (ATCC50212)", "experiment": "L. donovani DD8 intracellular (THP-1) amastigote assay", "assay_type": "cell-based", "settings": "Leishmania donovani, read-out: antiparasitic pIC50 ± SE L. donovani (converted)", "units": {"IC50": "µM"}, "values": [
      {"smiles": "Cc1ccc(Cn2c(C)cn3cc([N+](=O)[O-])nc3c2=O)cc1", "note": "[25h, 6-Methyl-7-(4-methylbenzyl)-2-nitroimidazo[1,2-a]pyrazin-8(7H)-one]", "IC50": "> 39.8"},
      {"smiles": "Cc1cn2cc([N+](=O)[O-])nc2c(=O)n1Cc1cccc(OC(F)(F)F)c1", "note": "[25j, 6-Methyl-2-nitro-7-(3-(trifluoromethoxy)benzyl)imidazo[1,2-a]pyrazin-8(7H)-one]", "IC50": "> 20"},
      {"smiles": "Cc1cn2cc([N+](=O)[O-])nc2c(=O)n1Cc1ccccc1OC(F)(F)F", "note": "[25l, 6-Methyl-2-nitro-7-(2-(trifluoromethoxy)benzyl)imidazo[1,2-a]pyrazin-8(7H)-one]", "IC50": "> 39.8"}
    ]},
    {"test_system": "not listed separately", "experiment": "Broth microdilution MIC assay, ESKAPE pathogens", "assay_type": "cell-based", "settings": "S. aureus, E. coli, K. pneumoniae, A. baumannii, P. aeruginosa; read-out: antibacterial MIC ESKAPE", "units": {"MIC": "µg/mL"}, "values": [
      {"smiles": "Cc1ccc(Cn2c(C)cn3cc([N+](=O)[O-])nc3c2=O)cc1", "note": "[25h, 6-Methyl-7-(4-methylbenzyl)-2-nitroimidazo[1,2-a]pyrazin-8(7H)-one]", "MIC": "> 32"},
      {"smiles": "Cc1cn2cc([N+](=O)[O-])nc2c(=O)n1Cc1cccc(OC(F)(F)F)c1", "note": "[25j, 6-Methyl-2-nitro-7-(3-(trifluoromethoxy)benzyl)imidazo[1,2-a]pyrazin-8(7H)-one]", "MIC": "> 32"},
      {"smiles": "Cc1cn2cc([N+](=O)[O-])nc2c(=O)n1Cc1ccccc1OC(F)(F)F", "note": "[25l, 6-Methyl-2-nitro-7-(2-(trifluoromethoxy)benzyl)imidazo[1,2-a]pyrazin-8(7H)-one]", "MIC": "> 32"}
    ]},
    {"test_system": "ESKAPE pathogens S. aureus (ATCC 43300), E. coli (ATCC 25922), K. pneumoniae (ATCC 700603), A. baumannii (ATCC 19606), P. aeruginosa (ATCC 27853)", "experiment": "Broth microdilution MIC assay, ESKAPE pathogens", "assay_type": "cell-based", "settings": "not given", "units": {"antibacterial MIC ESKAPE": "µg/mL"}, "values": [
      {"smiles": "Cc1ccc(Cn2c(C)cn3cc([N+](=O)[O-])nc3c2=O)cc1", "note": "[25h, 6-Methyl-7-(4-methylbenzyl)-2-nitroimidazo[1,2-a]pyrazin-8(7H)-one]", "antibacterial MIC ESKAPE": ">32"},
      {"smiles": "Cc1cn2cc([N+](=O)[O-])nc2c(=O)n1Cc1cccc(OC(F)(F)F)c1", "note": "[25j, 6-Methyl-2-nitro-7-(3-(trifluoromethoxy)benzyl)imidazo[1,2-a]pyrazin-8(7H)-one]", "antibacterial MIC ESKAPE": ">32"},
      {"smiles": "Cc1cn2cc([N+](=O)[O-])nc2c(=O)n1Cc1ccccc1OC(F)(F)F", "note": "[25l, 6-Methyl-2-nitro-7-(2-(trifluoromethoxy)benzyl)imidazo[1,2-a]pyrazin-8(7H)-one]", "antibacterial MIC ESKAPE": ">32"}
    ]},
    {"test_system": "C. albicans (ATCC 90028) and C. neoformans (H99, ATCC 208821)", "experiment": "Broth microdilution MIC assay, fungi", "assay_type": "cell-based", "settings": "not given", "units": {"antifungal MIC": "µg/mL"}, "values": [
      {"smiles": "Cc1ccc(Cn2c(C)cn3cc([N+](=O)[O-])nc3c2=O)cc1", "note": "[25h, 6-Methyl-7-(4-methylbenzyl)-2-nitroimidazo[1,2-a]pyrazin-8(7H)-one]", "antifungal MIC": ">32"},
      {"smiles": "Cc1cn2cc([N+](=O)[O-])nc2c(=O)n1Cc1cccc(OC(F)(F)F)c1", "note": "[25j, 6-Methyl-2-nitro-7-(3-(trifluoromethoxy)benzyl)imidazo[1,2-a]pyrazin-8(7H)-one]", "antifungal MIC": ">32"},
      {"smiles": "Cc1cn2cc([N+](=O)[O-])nc2c(=O)n1Cc1ccccc1OC(F)(F)F", "note": "[25l, 6-Methyl-2-nitro-7-(2-(trifluoromethoxy)benzyl)imidazo[1,2-a]pyrazin-8(7H)-one]", "antifungal MIC": ">32"}
    ]},
    {"test_system": "C. albicans (ATCC 90028) and C. neoformans (H99, ATCC 208821)", "experiment": "Broth microdilution MIC assay, fungi", "assay_type": "cell-based", "settings": "Candida albicans, read-out: antifungal MIC", "units": {"MIC": "µg/mL"}, "values": [
      {"smiles": "Cc1ccc(Cn2c(C)cn3cc([N+](=O)[O-])nc3c2=O)cc1", "note": "[25h, 6-Methyl-7-(4-methylbenzyl)-2-nitroimidazo[1,2-a]pyrazin-8(7H)-one]", "MIC": "> 32"},
      {"smiles": "Cc1cn2cc([N+](=O)[O-])nc2c(=O)n1Cc1cccc(OC(F)(F)F)c1", "note": "[25j, 6-Methyl-2-nitro-7-(3-(trifluoromethoxy)benzyl)imidazo[1,2-a]pyrazin-8(7H)-one]", "MIC": "> 32"},
      {"smiles": "Cc1cn2cc([N+](=O)[O-])nc2c(=O)n1Cc1ccccc1OC(F)(F)F", "note": "[25l, 6-Methyl-2-nitro-7-(2-(trifluoromethoxy)benzyl)imidazo[1,2-a]pyrazin-8(7H)-one]", "MIC": "> 32"}
    ]},
    {"test_system": "not listed separately", "experiment": "Kinetic solubility determination by LC-UV", "settings": "PBS, pH 7.4, Solubility µM (PBS), PBS pH 7.4, 24 h, room temperature, 1% DMSO", "units": {"solubility at 24 h": "µM"}, "values": [
      {"smiles": "Cc1cn2cc([N+](=O)[O-])nc2c(=O)n1Cc1cccc(OC(F)(F)F)c1", "note": "[25j, 6-Methyl-2-nitro-7-(3-(trifluoromethoxy)benzyl)imidazo[1,2-a]pyrazin-8(7H)-one]", "solubility at 24 h": "< 5"},
      {"smiles": "Cc1cn2cc([N+](=O)[O-])nc2c(=O)n1Cc1ccccc1OC(F)(F)F", "note": "[25l, 6-Methyl-2-nitro-7-(2-(trifluoromethoxy)benzyl)imidazo[1,2-a]pyrazin-8(7H)-one]", "solubility at 24 h": "< 5"}
    ]},
    {"test_system": "not listed separately", "experiment": "Kinetic solubility determination by LC-UV", "settings": "water, Solubility µM (H2O), 24 h, room temperature, 1% DMSO", "units": {"solubility at 24 h": "µM"}, "values": [
      {"smiles": "Cc1ccc(Cn2c(C)cn3cc([N+](=O)[O-])nc3c2=O)cc1", "note": "[25h, 6-Methyl-7-(4-methylbenzyl)-2-nitroimidazo[1,2-a]pyrazin-8(7H)-one]", "solubility at 24 h": "7.5 ± 0.245"},
      {"smiles": "Cc1cn2cc([N+](=O)[O-])nc2c(=O)n1Cc1cccc(OC(F)(F)F)c1", "note": "[25j, 6-Methyl-2-nitro-7-(3-(trifluoromethoxy)benzyl)imidazo[1,2-a]pyrazin-8(7H)-one]", "solubility at 24 h": "< 5"},
      {"smiles": "Cc1cn2cc([N+](=O)[O-])nc2c(=O)n1Cc1ccccc1OC(F)(F)F", "note": "[25l, 6-Methyl-2-nitro-7-(2-(trifluoromethoxy)benzyl)imidazo[1,2-a]pyrazin-8(7H)-one]", "solubility at 24 h": "< 5"}
    ]},
    {"test_system": "not listed separately", "experiment": "Mammalian cytotoxicity assay (resazurin), HepG2", "settings": "human, HepG2 cells", "units": {"CC50 at 24 h": "µM"}, "values": [
      {"smiles": "Cc1ccc(Cn2c(C)cn3cc([N+](=O)[O-])nc3c2=O)cc1", "note": "[25h, 6-Methyl-7-(4-methylbenzyl)-2-nitroimidazo[1,2-a]pyrazin-8(7H)-one]", "CC50 at 24 h": "> 100"},
      {"smiles": "Cc1cn2cc([N+](=O)[O-])nc2c(=O)n1Cc1cccc(OC(F)(F)F)c1", "note": "[25j, 6-Methyl-2-nitro-7-(3-(trifluoromethoxy)benzyl)imidazo[1,2-a]pyrazin-8(7H)-one]", "CC50 at 24 h": "> 100"},
      {"smiles": "Cc1cn2cc([N+](=O)[O-])nc2c(=O)n1Cc1ccccc1OC(F)(F)F", "note": "[25l, 6-Methyl-2-nitro-7-(2-(trifluoromethoxy)benzyl)imidazo[1,2-a]pyrazin-8(7H)-one]", "CC50 at 24 h": "> 100"}
    ]},
    {"test_system": "not listed separately", "experiment": "Mammalian cytotoxicity assay (resazurin), HEK293", "settings": "human, HEK293 cells", "units": {"CC50 at 24 h": "µM"}, "values": [
      {"smiles": "Cc1ccc(Cn2c(C)cn3cc([N+](=O)[O-])nc3c2=O)cc1", "note": "[25h, 6-Methyl-7-(4-methylbenzyl)-2-nitroimidazo[1,2-a]pyrazin-8(7H)-one]", "CC50 at 24 h": "> 100"},
      {"smiles": "Cc1cn2cc([N+](=O)[O-])nc2c(=O)n1Cc1cccc(OC(F)(F)F)c1", "note": "[25j, 6-Methyl-2-nitro-7-(3-(trifluoromethoxy)benzyl)imidazo[1,2-a]pyrazin-8(7H)-one]", "CC50 at 24 h": "> 100"},
      {"smiles": "Cc1cn2cc([N+](=O)[O-])nc2c(=O)n1Cc1ccccc1OC(F)(F)F", "note": "[25l, 6-Methyl-2-nitro-7-(2-(trifluoromethoxy)benzyl)imidazo[1,2-a]pyrazin-8(7H)-one]", "CC50 at 24 h": "> 100"}
    ]}
  ]
}
